In US20260217706A1, “HETEROCYCLIC COMPOUNDS, PREPARATION METHOD THEREFOR AND USE THEREOF” (GUANGZHOU YUFAN NANTU BIOTECHNOLOGIES CO., LTD, priority 2023, published 2026):

Biological target: CBL-B protein (Homo sapiens, UniProt Q13191)
Assay: CBL-B binding experiment (Streptavidin-Tb cryptate / Ligand L1 displacement)
Details: 8 nM CBL-B protein, 25° C., 60 minutes; Ki=Relative IC50/2
Method: The reaction system mainly includes 1× buffer, 20 mM HEPES pH 7.5, 150 mM NaCl, 0.01% Triton X-100, 0.5 mM TCEP, and 0.1% ug/ml BSA. The compound is continuously diluted with DMSO for 10 concentration points, and 150 nL is transferred to the experimental plate. The experimental reaction begins after adding 8 nM of CBL-B protein and the reaction is carried out at 25° C. for 60 minutes. […] After an additional 60 minutes of incubation at room temperature, the experimental plate is read using an EnVision plate. The luminescence signal values were converted to percentage inhibition rates. Inhibition %=(Sample value−Maximum value)/(Minimum value−Maximum value)×100. The minimum value refers to the measured value in the wells without CBL-B protein but with DMSO and Ligand, while the maximum value refers to the measured value in the wells with DMSO, CBL-B protein, and Ligand. The IC50 values are calculated by XLFit (version 5.3.1.3) in Excel. Equation: Y=Bottom+(Top−Bottom)/(1+(IC50/X)^HillSlope); Ki=Relative IC50/2.

Sequence of CBL-B protein (Q13191 whole entry): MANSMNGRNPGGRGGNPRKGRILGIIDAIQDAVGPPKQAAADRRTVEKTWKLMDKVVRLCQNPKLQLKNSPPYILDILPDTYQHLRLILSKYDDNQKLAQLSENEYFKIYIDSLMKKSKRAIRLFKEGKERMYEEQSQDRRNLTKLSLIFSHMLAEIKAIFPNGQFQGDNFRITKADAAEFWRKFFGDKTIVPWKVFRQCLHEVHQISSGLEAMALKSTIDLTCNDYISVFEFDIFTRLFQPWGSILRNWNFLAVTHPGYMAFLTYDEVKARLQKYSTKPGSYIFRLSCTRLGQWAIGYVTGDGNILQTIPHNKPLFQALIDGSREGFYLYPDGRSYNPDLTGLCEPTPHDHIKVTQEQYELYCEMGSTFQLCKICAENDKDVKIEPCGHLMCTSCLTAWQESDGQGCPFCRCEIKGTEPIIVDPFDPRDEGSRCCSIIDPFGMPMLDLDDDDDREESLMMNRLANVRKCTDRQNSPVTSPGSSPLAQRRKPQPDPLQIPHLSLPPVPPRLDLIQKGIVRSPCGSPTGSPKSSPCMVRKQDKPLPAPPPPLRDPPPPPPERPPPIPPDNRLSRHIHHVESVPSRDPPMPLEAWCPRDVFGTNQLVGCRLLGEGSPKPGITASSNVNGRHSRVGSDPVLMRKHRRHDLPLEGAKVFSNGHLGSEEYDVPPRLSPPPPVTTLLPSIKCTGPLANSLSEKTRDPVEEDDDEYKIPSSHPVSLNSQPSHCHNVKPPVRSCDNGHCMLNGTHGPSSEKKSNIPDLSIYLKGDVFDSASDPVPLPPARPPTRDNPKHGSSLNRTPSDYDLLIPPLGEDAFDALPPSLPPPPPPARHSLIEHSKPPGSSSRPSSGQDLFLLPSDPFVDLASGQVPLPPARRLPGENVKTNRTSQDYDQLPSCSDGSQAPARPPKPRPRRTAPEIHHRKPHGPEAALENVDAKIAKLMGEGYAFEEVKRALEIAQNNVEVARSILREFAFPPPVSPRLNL

Row | SMILES | Ki
1 | C[C@@H](NCc1cc2c(C(F)(F)F)cn(-c3cccc(C4(c5nncn5C)CCC4)c3)c(=O)c2[nH]1)C(C)(C)C (racemic) [Compound T044, 6-[3-[1-(4-methyl-1,2,4-triazol-3-yl)cyclobutyl]phenyl]-2-[[[rac-(1R)-1,2,2-trimethylpropyl]amino]methyl]-4-(trifluoromethyl)-1H-pyrrolo[2,3-c]pyridin-7-one] | < 50 nM
2 | Cn1cnnc1C1(c2cccc(-n3cc(C(F)(F)F)c4cc(CN5CCCC(C(F)F)C5)[nH]c4c3=O)c2)CCC1 (racemic) [Compound T113, 6-[3-[1-(4-methyl-1,2,4-triazol-3-yl)cyclobutyl]phenyl]-2-[[rac-(3R)-3-(difluoromethyl)-1-piperidyl]methyl]-4-(trifluoromethyl)-1H-pyrrolo[2,3-c]pyridin-7-one] | < 50 nM
3 | C[C@H]1CCCN(Cc2cc3ccn(-c4cccc(C5(Cc6nncn6C)COC5)c4)c(=O)c3[nH]2)C1 [Compound T001, (S)-6-(3-(3-((4-methyl-4H-1,2,4-triazol-3-yl)methyl)oxetan-3-yl)phenyl)-2-((3-methylpiperidin-1-yl)methyl)-1,6-dihydro-7H-pyrrolo[2,3-c]pyridin-7-one] | < 50 nM
4 | Cc1cn(-c2cccc(C3(Cc4nncn4C)COC3)c2)c(=O)c2[nH]c(CN3CCC[C@H](C)C3)cc12 [Compound T003, 4-methyl-2-[[(3S)-3-methyl-1-piperidyl]methyl]-6-[3-[3-[(4-methyl-1,2,4-triazol-3-yl)methyl]oxetan-3-yl]phenyl]-1H-pyrrolo[2,3-c]pyridin-7-one] | < 50 nM
5 | C=Cc1cn(-c2cccc([C@]3(c4nncn4C)C[C@@H](C)C3)c2)c(=O)c2[nH]c(CN3CCC[C@H](C)C3)cc12 [Compound T004, 6-(3-((1s,3R)-3-methyl-1-(4-methyl-4H-1,2,4-triazol-3-yl)cyclobutyl)phenyl)-2-(((S)-3-methylpiperidin-1-yl)methyl)-4-vinyl-1,6-dihydro-7H-pyrrolo[2,3-c]pyridin-7-one] | < 50 nM
6 | Cn1cnnc1CC1(c2cccc(-n3cc(C4CC4)c4cc(CN5CCCCC5)[nH]c4c3=O)c2)COC1 [Compound T006, 4-cyclopropyl-6-[3-[3-[(4-methyl-1,2,4-triazol-3-yl)methyl]oxetan-3-yl]phenyl]-2-(1-piperidylmethyl)-1H-pyrrolo[2,3-c]pyridin-7-one] | < 50 nM
7 | C[C@H]1CCCN(Cc2cc3c(C4CC4)cn(-c4cccc([C@H](c5nncn5C)C5CCC5)c4)c(=O)c3[nH]2)C1 [Compound T012, 6-(3-((R)-cyclobutyl(4-methyl-4H-1,2,4-triazol-3-yl)methyl)phenyl)-4-cyclopropyl-2-(((S)-3-methylpiperidin-1-yl)methyl)-1,6-dihydro-7H-pyrrolo[2,3-c]pyridin-7-one] | < 50 nM
8 | Cn1cnnc1C1(c2cccc(-n3cc(C(F)(F)F)c4cc(CN5CC[C@@H](O)C5)[nH]c4c3=O)c2)CCC1 [Compound T015, 2-[[(3R)-3-hydroxypyrrolidin-1-yl]methyl]-6-[3-[1-(4-methyl-1,2,4-triazol-3-yl)cyclobutyl]phenyl]-4-(trifluoromethyl)-1H-pyrrolo[2,3-c]pyridin-7-one] | < 50 nM
9 | Cn1cnnc1C1(c2cccc(-n3cc(C(F)(F)F)c4cc(CN5CC[C@H](O)C5)[nH]c4c3=O)c2)CCC1 [Compound T016, 2-[[(3S)-3-hydroxypyrrolidin-1-yl]methyl]-6-[3-[1-(4-methyl-1,2,4-triazol-3-yl)cyclobutyl]phenyl]-4-(trifluoromethyl)-1H-pyrrolo[2,3-c]pyridin-7-one] | < 50 nM
10 | CC(C)c1cn(-c2cccc(C3(Cc4nncn4C)COC3)c2)c(=O)c2[nH]c(CN3CCC[C@H](C)C3)cc12 [Compound T022, 4-isopropyl-2-[[(3S)-3-methyl-1-piperidyl]methyl]-6-[3-[3-[(4-methyl-1,2,4-triazol-3-yl)methyl]oxetan-3-yl]phenyl]-1H-pyrrolo[2,3-c]pyridin-7-one] | < 50 nM
11 | Cn1cnnc1C1(c2cccc(-n3cc(C(F)(F)F)c4cc(CN5C[C@@H]6C[C@H]5CO6)[nH]c4c3=O)c2)CCC1 [Compound T031, 6-[3-[1-(4-methyl-1,2,4-triazol-3-yl)cyclobutyl]phenyl]-2-[[(1 S,4S)-2-oxa-5-azabicyclo [2.2.1]heptan-5-yl]methyl]-4-(trifluoromethyl)-1H-pyrrolo[2,3-c]pyridin-7-one] | < 50 nM
12 | Cn1cnnc1C1(c2cccc(-n3cc(C(F)(F)F)c4cc(CN5C[C@H]6C[C@@H]5CO6)[nH]c4c3=O)c2)CCC1 [Compound T032, 6-[3-[1-(4-methyl-1,2,4-triazol-3-yl)cyclobutyl]phenyl]-2-[[(1R,4R)-2-oxa-5-azabicyclo[2.2.1]heptan-5-yl]methyl]-4-(trifluoromethyl)-1H-pyrrolo[2,3-c]pyridin-7-one] | < 50 nM
13 | C[C@H]1CCCN(Cc2cc3c(C4CC4)cn(-c4cccc([C@]5(Cc6nncn6C)C[C@@H](C)C5)c4)c(=O)c3[nH]2)C1 [Compound T036, 4-cyclopropyl-6-(3-((1r,3S)-3-methyl-1-((4-methyl-4H-1,2,4-triazol-3-yl)methyl)cyclobutyl)phenyl)-2-(((S)-3-methylpiperidin-1-yl)methyl)-1,6-dihydro-7H-pyrrolo[2,3-c]pyridin-7-one] | 50 to 100 nM
14 | Cn1cnnc1C1(c2cccc(-n3cc(C(F)(F)F)c4cc(CN5CCC[C@@H](O)C5)[nH]c4c3=O)c2)CCC1 [Compound T039, 2-[[(3R)-3-hydroxy-1-piperidyl]methyl]-6-[3-[1-(4-methyl-1,2,4-triazol-3-yl)cyclobutyl]phenyl]-4-(trifluoromethyl)-1H-pyrrolo[2,3-c]pyridin-7-one] | < 50 nM
15 | Cn1cnnc1C1(c2cccc(-n3cc(C(F)(F)F)c4cc(CN5CCC[C@@H](F)C5)[nH]c4c3=O)c2)CCC1 [Compound T046, 2-[[(3R)-3-fluoro-1-piperidyl]methyl]-6-[3-[1-(4-methyl-1,2,4-triazol-3-yl)cyclobutyl]phenyl]-4-(trifluoromethyl)-1H-pyrrolo[2,3-c]pyridin-7-one] | < 50 nM
16 | Cn1cnnc1C1(c2cccc(-n3cc(C(F)(F)F)c4cc(CN5CCC[C@H](F)C5)[nH]c4c3=O)c2)CCC1 [Compound T048, 2-[[(3S)-3-fluoro-1-piperidyl]methyl]-6-[3-[1-(4-methyl-1,2,4-triazol-3-yl)cyclobutyl]phenyl]-4-(trifluoromethyl)-1H-pyrrolo[2,3-c]pyridin-7-one] | < 50 nM
17 | Cn1cnnc1C1(c2cccc(-n3cc(C(F)(F)F)c4cc(CN5C[C@@H](F)[C@@H](F)C5)[nH]c4c3=O)c2)CCC1 [Compound T049, 2-[[(3R,4S)-3,4-difluoropyrrolidin-1-yl]methyl]-6-[3-[1-(4-methyl-1,2,4-triazol-3-yl)cyclobutyl]phenyl]-4-(trifluoromethyl)-1H-pyrrolo[2,3-c]pyridin-7-one] | < 50 nM
18 | Cn1cnnc1C1(c2cccc(-n3cc(C(F)(F)F)c4cc(CNCC(F)(F)CO)[nH]c4c3=O)c2)CCC1 [Compound T050, 2-[[(2,2-difluoro-3-hydroxy-propyl)amino]methyl]-6-[3-[1-(4-methyl-1,2,4-triazol-3-yl)cyclobutyl]phenyl]-4-(trifluoromethyl)-1H-pyrrolo[2,3-c]pyridin-7-one] | < 50 nM
19 | Cn1cnnc1C1(c2cccc(-n3cc(C(F)(F)F)c4cc(CN5CCC6(CC5)CC6)[nH]c4c3=O)c2)CCC1 [Compound T051, 2-(6-azaspiro[2.5]octan-6-ylmethyl)-6-[3-[1-(4-methyl-1,2,4-triazol-3-yl)cyclobutyl]phenyl]-4-(trifluoromethyl)-1H-pyrrolo[2,3-c]pyridin-7-one] | < 50 nM
20 | Cn1cnnc1C1(c2cccc(-n3cc(C(F)(F)F)c4cc(CN5C6CCCC5CC6)[nH]c4c3=O)c2)CCC1 [Compound T052, 2-(8-azabicyclo[3.2.1]octan-8-ylmethyl)-6-[3-[1-(4-methyl-1,2,4-triazol-3-yl)cyclobutyl]phenyl]-4-(trifluoromethyl)-1H-pyrrolo[2,3-c]pyridin-7-one] | < 50 nM
21 | CN(Cc1cc2c(C(F)(F)F)cn(-c3cccc(C4(c5nncn5C)CCC4)c3)c(=O)c2[nH]1)CC(F)(F)F [Compound T057, 2-((methyl(2,2,2-trifluoroethyl)amino)methyl)-6-(3-(1-(4-methyl-4H-1,2,4-triazol-3-yl)cyclobutyl)phenyl)-4-(trifluoromethyl)-1,6-dihydro-7H-pyrrolo[2,3-c]pyridin-7-one] | < 50 nM
22 | C[C@H]1CCCN(Cc2cc3c(C(F)(F)F)cn(-c4cccc([C@@H](c5nncn5C)C5CCC5)c4)c(=O)c3[nH]2)C1 [Compound T059, 6-(3-((S)-cyclobutyl (4-methyl-4H-1,2,4-triazol-3-yl)methyl)phenyl)-2-(((S)-3-methylpiperidin-1-yl)methyl)-4-(trifluoromethyl)-1,6-dihydro-7H-pyrrolo[2,3-c]pyridin-7-one] | < 50 nM
23 | C[C@H]1CCCN(Cc2cc3c(C(F)(F)F)cn(-c4cccc(C5(Cc6nncn6C)COC5)c4)c(=O)c3[nH]2)C1 [Compound T061, 2-[[(3S)-3-methyl-1-piperidyl]methyl]-6-[3-[3-[(4-methyl-1,2,4-triazol-3-yl)methyl]oxetan-3-yl]phenyl]-4-(trifluoromethyl)-1H-pyrrolo[2,3-c]pyridin-7-one] | < 50 nM
24 | Cn1cnnc1C1(c2cccc(-n3cc(C(F)(F)F)c4cc(CN5CCC[C@](C)(O)C5)[nH]c4c3=O)c2)CCC1 [Compound T064, (S)-2-((3-hydroxy-3-methylpiperidin-1-yl)methyl)-6-(3-(1-(4-methyl-4H-1,2,4-triazol-3-yl)cyclobutyl)phenyl)-4-(trifluoromethyl)-1,6-dihydro-7H-pyrrolo[2,3-c]pyridin-7-one] | < 50 nM
